In patent publication US10765682B2 (LAM Therapeutics, Inc., priority 2014, dated 2020):

Tested on: Yulac614 melanoma cells
Experiment: Yulac614 cell viability (CellTiter-Glo), drug library screen and 10 point validation with/without vemurafenib
Method: Duplicate drug-spotted plates were prepared and to them were added Yulac614 cells which were pre-treated with either DMSO (0.01% final) or vemurafenib (6 μM final). The Yulac614 cells were grown in OptiMEM (Life Technologies) containing 5% FBS (Sigma Aldrich F2442-500ML, Lot 12D370) Penicillin/Streptomycin (100×) (CellGro Ref 30-002). 30 uL of cells were dispensed per well using a Multidrop Combi (Thermo Fisher Scientific) to give a final cell density of 2,000 cells per well.
Plates were incubated for 72 h at 37° C. under an atmosphere of 5% CO2 in a humidified incubator. Cell viability was determined with CellTiter-Glo® luminescence assay (Promega) as per the manufacturer's instructions. Viability was expressed as a percentage of control (DMSO) cells. The viability of the library drug alone was compared to the library drug+vemurafenib and significant combinations were identified.
72 hours after compound addition relative cell viability was determined by CellTiter-Glo® luminescence assay (Promega) as per the manufacturer's instructions, and values were expressed as a percentage relative to vehicle (DMSO) treated control cells (set to 100%).

## Cc1cccc(/C=N/Nc2cc(N3CCOCC3)nc(OCCc3ccccn3)n2)c1 [apilimod, (E)-4-(6-(2-(3-methylbenzylidene)hydrazinyl)-2-(2-(pyridin-2-yl)ethoxy)pyrimidin-4-yl)morpholine]
  IC20: 500 nM
